Data on 1 substance can be found in publication PMC7747769 (AIChE journal. American Institute of Chemical Engineers, 2019).

Assay [1] relates to DR1. To be noted: DR1 and HA306–318 peptide; cited from earlier work.
The subject of assay [2] is DR1. Format: binding, human.

Take DNP-PKYVKQNTLKLAT [HA306–318]: in assay [1], the IC50 is about 34 nM. For the same substance, the “SDS stability of DR1 complex” value in assay [2] is reported as “migrated as an SDS-stable heterodimer”.

Usually IC50 stands for the concentration needed to halve the response being measured.
